Measured values: the NIST ThermoML archive (doi:10.1016/j.fluid.2012.12.001)

Assay: an = ratio of the nth substance listed
Settings: for viscosity / mass density: 101 kPa, Liquid; for viscosity: Capillary tube (Ostwald / Ubbelohde) method; for mass density: Vibrating tube method; for surface tension liquid-gas: Capillary rise

CC(O)C(=O)O (centres undefined) [2-hydroxypropanoic acid] + C[N+](C)(C)CCO.[Cl-]
Settings | mass density [kg/m3] | surface tension liquid-gas [mN/m] | viscosity [mPa·s]
298.15 K, a1 = 1.3 | 1166.3 | – | 722.55
298.15 K, a1 = 1.5 | 1174.9 | – | 615.62
298.15 K, a1 = 2 | 1179.3 | – | 536.28
298.15 K, a1 = 2.5 | 1184.7 | – | 494.73
298.15 K, a1 = 3 | 1189.3 | – | 437.53
298.15 K, a1 = 3.5 | 1193.2 | – | 418.14
298.15 K, a1 = 5 | 1200.6 | – | 378.56
298.15 K, a1 = 8 | 1208 | – | 341.27
298.15 K, a1 = 10 | 1211.3 | – | 321.5
298.15 K, a1 = 15 | 1173.2 | – | 226.94
298.2 K, a1 = 2 | – | 48 | –
303.15 K, a1 = 1.3 | 1163.1 | – | 508.17
303.15 K, a1 = 1.5 | 1171.4 | – | 428.98
303.15 K, a1 = 2 | 1175.8 | – | 370.38
303.15 K, a1 = 2.5 | 1181.1 | – | 341.17
303.15 K, a1 = 3 | 1185.6 | – | 300.21
303.15 K, a1 = 3.5 | 1189.4 | – | 285.25
303.15 K, a1 = 5 | 1196.7 | – | 254.91
303.15 K, a1 = 8 | 1204 | – | 226.58
303.15 K, a1 = 10 | 1207.1 | – | 213.35
303.15 K, a1 = 15 | 1207.1 | – | 163.42
303.3 K, a1 = 2 | – | 47.6 | –
308.15 K, a1 = 1.3 | 1160 | – | 364.59
308.15 K, a1 = 1.5 | 1168.2 | – | 304.96
308.15 K, a1 = 2 | 1172.5 | – | 263.28
308.15 K, a1 = 2.5 | 1177.7 | – | 241.21
308.15 K, a1 = 3 | 1182.1 | – | 211.64
308.15 K, a1 = 3.5 | 1185.9 | – | 200.01
308.15 K, a1 = 5 | 1193 | – | 176.99
308.15 K, a1 = 8 | 1200.1 | – | 155.91
308.15 K, a1 = 10 | 1203 | – | 146.37
308.15 K, a1 = 15 | 1203 | – | 146.37
308.3 K, a1 = 2 | – | 47.3 | –
313.15 K, a1 = 1.3 | 1157 | – | 267.49
313.15 K, a1 = 1.5 | 1165 | – | 222.55
313.15 K, a1 = 2 | 1169.3 | – | 191.68
313.15 K, a1 = 2.5 | 1174.4 | – | 174.9
313.15 K, a1 = 3 | 1178.6 | – | 153.04
313.15 K, a1 = 3.5 | 1182.3 | – | 144.01
313.15 K, a1 = 5 | 1189.3 | – | 126.42
313.15 K, a1 = 8 | 1196.2 | – | 110.53
313.15 K, a1 = 10 | 1199 | – | 103.52
313.15 K, a1 = 15 | 1199 | – | 103.52
313.5 K, a1 = 2 | – | 47 | –
318.15 K, a1 = 1.3 | 1154 | – | 200.31
318.15 K, a1 = 1.5 | 1161.9 | – | 165.87
318.15 K, a1 = 2 | 1166.2 | – | 142.7
318.15 K, a1 = 2.5 | 1171.1 | – | 129.75
318.15 K, a1 = 3 | 1175.2 | – | 113.34
318.15 K, a1 = 3.5 | 1178.8 | – | 106.26
318.15 K, a1 = 5 | 1185.6 | – | 92.66
318.15 K, a1 = 8 | 1192.3 | – | 80.53
318.15 K, a1 = 10 | 1195 | – | 75.26
318.15 K, a1 = 15 | 1195 | – | 75.26
319.2 K, a1 = 2 | – | 46.7 | –
323.15 K, a1 = 1.3 | 1151.1 | – | 152.8
323.15 K, a1 = 1.5 | 1158.9 | – | 126.22
323.15 K, a1 = 2 | 1163 | – | 108.45
323.15 K, a1 = 2.5 | 1167.9 | – | 98.3
323.15 K, a1 = 3 | 1171.8 | – | 85.77
323.15 K, a1 = 3.5 | 1175.3 | – | 80.16
323.15 K, a1 = 5 | 1181.9 | – | 69.53
323.15 K, a1 = 8 | 1188.4 | – | 60.12
323.15 K, a1 = 10 | 1191 | – | 56.1
323.15 K, a1 = 15 | 1191 | – | 56.1
323.5 K, a1 = 2 | – | 46.5 | –
328.15 K, a1 = 1.3 | 1148.2 | – | 118.6
328.15 K, a1 = 1.5 | 1155.8 | – | 97.77
328.15 K, a1 = 2 | 1159.9 | – | 83.99
328.15 K, a1 = 2.5 | 1164.6 | – | 75.93
328.15 K, a1 = 3 | 1168.4 | – | 66.19
328.15 K, a1 = 3.5 | 1171.8 | – | 61.71
328.15 K, a1 = 5 | 1178.3 | – | 53.28
328.15 K, a1 = 8 | 1184.5 | – | 45.88
328.15 K, a1 = 10 | 1186.9 | – | 42.76
328.15 K, a1 = 15 | 1186.9 | – | 42.76
328.6 K, a1 = 2 | – | 46.2 | –
333.15 K, a1 = 1.3 | 1145.3 | – | 93.55
333.15 K, a1 = 1.5 | 1152.7 | – | 76.99
333.15 K, a1 = 2 | 1156.7 | – | 66.16
333.15 K, a1 = 2.5 | 1161.3 | – | 59.67
333.15 K, a1 = 3 | 1165 | – | 52
333.15 K, a1 = 3.5 | 1168.3 | – | 48.38
333.15 K, a1 = 5 | 1174.6 | – | 41.63
333.15 K, a1 = 8 | 1180.5 | – | 35.72
333.15 K, a1 = 10 | 1182.9 | – | 33.26
333.15 K, a1 = 15 | 1182.9 | – | 33.26
333.2 K, a1 = 2 | – | 46 | –
338.1 K, a1 = 2 | – | 45.7 | –
338.15 K, a1 = 1.3 | 1142.4 | – | 74.84
338.15 K, a1 = 1.5 | 1149.7 | – | 61.57
338.15 K, a1 = 2 | 1153.6 | – | 53.08
338.15 K, a1 = 2.5 | 1158 | – | 47.66
338.15 K, a1 = 3 | 1161.6 | – | 41.53
338.15 K, a1 = 3.5 | 1164.8 | – | 38.58
338.15 K, a1 = 5 | 1170.9 | – | 33.1
338.15 K, a1 = 8 | 1176.6 | – | 28.33
338.15 K, a1 = 10 | 1178.8 | – | 26.35
338.15 K, a1 = 15 | 1178.8 | – | 26.35
343.15 K, a1 = 1.3 | 1139.6 | – | 60.71
343.15 K, a1 = 1.5 | 1146.7 | – | 49.92
343.15 K, a1 = 2 | 1150.5 | – | 43.05
343.15 K, a1 = 2.5 | 1154.8 | – | 38.64
343.15 K, a1 = 3 | 1158.2 | – | 33.66
343.15 K, a1 = 3.5 | 1161.3 | – | 31.24
343.15 K, a1 = 5 | 1167.2 | – | 26.74
343.15 K, a1 = 8 | 1172.7 | – | 22.83
343.15 K, a1 = 10 | 1174.7 | – | 21.23
343.15 K, a1 = 15 | 1174.7 | – | 21.23
348.15 K, a1 = 1.3 | 1136.7 | – | 49.84
348.15 K, a1 = 1.5 | 1143.7 | – | 41.01
348.15 K, a1 = 2 | 1147.4 | – | 35.4
348.15 K, a1 = 2.5 | 1151.5 | – | 31.75
348.15 K, a1 = 3 | 1154.9 | – | 27.66
348.15 K, a1 = 3.5 | 1157.8 | – | 25.64
348.15 K, a1 = 5 | 1163.5 | – | 21.91
348.15 K, a1 = 8 | 1168.8 | – | 18.68
348.15 K, a1 = 10 | 1170.7 | – | 17.36
348.15 K, a1 = 15 | 1170.7 | – | 17.36
353.15 K, a1 = 1.3 | 1133.9 | – | 41.4
353.15 K, a1 = 1.5 | 1140.7 | – | 34.08
353.15 K, a1 = 2 | 1144.3 | – | 29.46
353.15 K, a1 = 2.5 | 1148.3 | – | 26.41
353.15 K, a1 = 3 | 1151.5 | – | 23.01
353.15 K, a1 = 3.5 | 1154.2 | – | 21.32
353.15 K, a1 = 5 | 1159.8 | – | 18.2
353.15 K, a1 = 8 | 1164.8 | – | 15.49
353.15 K, a1 = 10 | 1166.7 | – | 14.38
353.15 K, a1 = 15 | 1166.7 | – | 14.38
358.15 K, a1 = 1.3 | 1131.1 | – | 34.75
358.15 K, a1 = 1.5 | 1137.7 | – | 28.64
358.15 K, a1 = 2 | 1141.2 | – | 24.79
358.15 K, a1 = 2.5 | 1145.1 | – | 22.22
358.15 K, a1 = 3 | 1148.1 | – | 19.37
358.15 K, a1 = 3.5 | 1150.9 | – | 17.94
358.15 K, a1 = 5 | 1156.1 | – | 15.29
358.15 K, a1 = 8 | 1160.9 | – | 13.01
358.15 K, a1 = 10 | 1162.7 | – | 12.05
358.15 K, a1 = 15 | 1162.7 | – | 12.05
363.15 K, a1 = 1.3 | 1128.3 | – | 29.44
363.15 K, a1 = 1.5 | 1134.7 | – | 24.31
363.15 K, a1 = 2 | 1138.1 | – | 21.08
363.15 K, a1 = 2.5 | 1141.9 | – | 18.89
363.15 K, a1 = 3 | 1144.7 | – | 16.45
363.15 K, a1 = 3.5 | 1147.4 | – | 15.29
363.15 K, a1 = 5 | 1152.3 | – | 12.99
363.15 K, a1 = 8 | 1157.1 | – | 11.05
363.15 K, a1 = 10 | 1158.6 | – | 10.23
363.15 K, a1 = 15 | 1158.6 | – | 10.23
